Reference: US20220281848A1, “PYRAZOLE-SUBSTITUTED PYRROLIDINONES AS HERBICIDES” (FMC Corporation, priority 2019, published 2022)

Test system: plants
Assay: Test D pre-emergence, other plants of Tables D1 and D3
Assay type: in vivo
Conditions: pre-emergence, 100=total damage, 0=no damage
Procedure: A formulation containing 50 g/L of the test chemical was prepared by dissolving the active ingredient in a mixture of organic solvents and emulsifier, details of which are provided in the table. This formulation was then mixed with a small, variable amount of acetone to aid dissolution, before addition of a 0.2% v/v aqueous solution of an adjuvant, as the aqueous diluent, to form an aqueous spray solution which contains a predetermined concentration of the active ingredient.
This aqueous spray solution was then sprayed onto plants including maize and wheat that had been seed treated with a herbicide safener, after one day's cultivation (for pre-emergence) or after about 12 days' cultivation (for post-emergence). The plants were grown from seeds sown in standard soil, placed in a glasshouse under controlled conditions (at 24/18° C. or 20/16° C., day/night; 16 h light; 65% humidity). After spray application the plants were then grown in a glasshouse under the same conditions and watered twice daily. After 15 d for post-emergence and 20 DAA for pre-emergence the test was evaluated (100=total damage to plant; 0=no damage to plant).

CN1CC(c2cc(C(F)(F)F)n(C)n2)C(C(=O)Nc2cccc(F)c2F)C1=O (racemic) [Compound 3] was tested, and the “damage to plant, ALOMY” value (rate 15, 20 DAA) was 0, the “damage to plant, AVEFA” value (rate 15, 20 DAA) was 0 and the “damage to plant, BEAVA” value (rate 15, 20 DAA) was 0. For the same compound, the “damage to plant, BROTE” value (rate 15, 20 DAA) was 0, the “damage to plant, BRSNN” value (rate 15, 20 DAA) was 0 and the “damage to plant, CHEAL” value (rate 15, 20 DAA) was 0. For the same compound, the “damage to plant, GALAP” value (rate 15, 20 DAA) was 0, the “damage to plant, HORVW” value (rate 15, 20 DAA) was 0 and the “damage to plant, KCHSC” value (rate 15, 20 DAA) was 0. The “damage to plant, LOLPE” value (rate 15, 20 DAA) was 0, the “damage to plant, POAAN” value (rate 15, 20 DAA) was 0 and the “damage to plant, POLCO” value (rate 15, 20 DAA) was 0. The “damage to plant, SINAR” value (rate 15, 20 DAA) was 0, the “damage to plant, STEME” value (rate 15, 20 DAA) was 0 and the “damage to plant, VERPE” value (rate 15, 20 DAA) was 0. The “damage to plant, ALOMY” value (rate 30, 20 DAA) was 0, the “damage to plant, AVEFA” value (rate 30, 20 DAA) was 0 and the “damage to plant, BEAVA” value (rate 30, 20 DAA) was 0. For the same compound, the “damage to plant, BROTE” value (rate 30, 20 DAA) was 0, the “damage to plant, BRSNN” value (rate 30, 20 DAA) was 0 and the “damage to plant, CHEAL” value (rate 30, 20 DAA) was 0. For the same compound, the “damage to plant, GALAP” value (rate 30, 20 DAA) was 0, the “damage to plant, HORVW” value (rate 30, 20 DAA) was 0 and the “damage to plant, KCHSC” value (rate 30, 20 DAA) was 0. The “damage to plant, LOLPE” value (rate 30, 20 DAA) was 0, the “damage to plant, POAAN” value (rate 30, 20 DAA) was 20 and the “damage to plant, POLCO” value (rate 30, 20 DAA) was 0. The “damage to plant, SINAR” value (rate 30, 20 DAA) was 0, the “damage to plant, STEME” value (rate 30, 20 DAA) was 0 and the “damage to plant, VERPE” value (rate 30, 20 DAA) was 0. The “damage to plant, ALOMY” value (rate 60, 20 DAA) was 0, the “damage to plant, AVEFA” value (rate 60, 20 DAA) was 0 and the “damage to plant, BEAVA” value (rate 60, 20 DAA) was 0. For the same compound, the “damage to plant, BROTE” value (rate 60, 20 DAA) was 0, the “damage to plant, BRSNN” value (rate 60, 20 DAA) was 0 and the “damage to plant, CHEAL” value (rate 60, 20 DAA) was 0. For the same compound, the “damage to plant, GALAP” value (rate 60, 20 DAA) was 0, the “damage to plant, HORVW” value (rate 60, 20 DAA) was 0 and the “damage to plant, KCHSC” value (rate 60, 20 DAA) was 0. The “damage to plant, LOLPE” value (rate 60, 20 DAA) was 0, the “damage to plant, POAAN” value (rate 60, 20 DAA) was 20 and the “damage to plant, POLCO” value (rate 60, 20 DAA) was 0. For the same compound, the “damage to plant, SINAR” value (rate 60, 20 DAA) was 0, the “damage to plant, STEME” value (rate 60, 20 DAA) was 0 and the “damage to plant, VERPE” value (rate 60, 20 DAA) was 0. The “damage to plant, ALOMY” value (rate 130, 20 DAA) was 0, the “damage to plant, AVEFA” value (rate 130, 20 DAA) was 0 and the “damage to plant, BEAVA” value (rate 130, 20 DAA) was 0. The “damage to plant, BROTE” value (rate 130, 20 DAA) was 0, the “damage to plant, BRSNN” value (rate 130, 20 DAA) was 0 and the “damage to plant, CHEAL” value (rate 130, 20 DAA) was 0. For the same compound, the “damage to plant, GALAP” value (rate 130, 20 DAA) was 0, the “damage to plant, HORVW” value (rate 130, 20 DAA) was 0 and the “damage to plant, KCHSC” value (rate 130, 20 DAA) was 0. For the same compound, the “damage to plant, LOLPE” value (rate 130, 20 DAA) was 0, the “damage to plant, POAAN” value (rate 130, 20 DAA) was 40 and the “damage to plant, POLCO” value (rate 130, 20 DAA) was 0. For the same compound, the “damage to plant, SINAR” value (rate 130, 20 DAA) was 0, the “damage to plant, STEME” value (rate 130, 20 DAA) was 0 and the “damage to plant, VERPE” value (rate 130, 20 DAA) was 0. For the same compound, the “damage to plant, ALOMY” value (rate 250, 20 DAA) was 0, the “damage to plant, AVEFA” value (rate 250, 20 DAA) was 0 and the “damage to plant, BEAVA” value (rate 250, 20 DAA) was 0. The “damage to plant, BROTE” value (rate 250, 20 DAA) was 0, the “damage to plant, BRSNN” value (rate 250, 20 DAA) was 0 and the “damage to plant, CHEAL” value (rate 250, 20 DAA) was 0. For the same compound, the “damage to plant, GALAP” value (rate 250, 20 DAA) was 0, the “damage to plant, HORVW” value (rate 250, 20 DAA) was 0 and the “damage to plant, KCHSC” value (rate 250, 20 DAA) was 0. The “damage to plant, LOLPE” value (rate 250, 20 DAA) was 0, the “damage to plant, POAAN” value (rate 250, 20 DAA) was 50 and the “damage to plant, POLCO” value (rate 250, 20 DAA) was 0. The “damage to plant, SINAR” value (rate 250, 20 DAA) was 0, the “damage to plant, STEME” value (rate 250, 20 DAA) was 0 and the “damage to plant, VERPE” value (rate 250, 20 DAA) was 0. The “damage to plant, ALOMY” value (rate 500, 20 DAA) was 20, the “damage to plant, AVEFA” value (rate 500, 20 DAA) was 30 and the “damage to plant, BEAVA” value (rate 500, 20 DAA) was 0. For the same compound, the “damage to plant, BROTE” value (rate 500, 20 DAA) was 0, the “damage to plant, BRSNN” value (rate 500, 20 DAA) was 0 and the “damage to plant, CHEAL” value (rate 500, 20 DAA) was 0. For the same compound, the “damage to plant, GALAP” value (rate 500, 20 DAA) was 0, the “damage to plant, HORVW” value (rate 500, 20 DAA) was 20 and the “damage to plant, KCHSC” value (rate 500, 20 DAA) was 0. The “damage to plant, LOLPE” value (rate 500, 20 DAA) was 50, the “damage to plant, POAAN” value (rate 500, 20 DAA) was 60 and the “damage to plant, POLCO” value (rate 500, 20 DAA) was 0. For the same compound, the “damage to plant, SINAR” value (rate 500, 20 DAA) was 0, the “damage to plant, STEME” value (rate 500, 20 DAA) was 30 and the “damage to plant, VERPE” value (rate 500, 20 DAA) was 60.
